Laboratory results taken from patent publication US7084158B2, “Substituted propargylamines” (Bayer Cropscience S.A., priority 2001, dated 2006).

Tests used:
Format in all cases: in vivo
Set-up in all cases: key: compounds were considered to be active when, at a concentration of 500 ppm or less, they had an activity on the harmful organisms of 50% or more
Spodoptera exigua = assay: Example S: treated L2 larvae and insect diet, sugar beet army worm mortality; settings: 500 ppm or less, after 6 days
Description: A Petri dish whose bottom was covered with filter paper and which contains about 5 ml of insect diet is prepared. Five L2 larvae of sugar beet army worm (Spodoptera exigua) were counted into a small beaker. 200 μl of an aqueous solution of the formulated compound to be examined were pipetted into the beaker. The treated larvae were then poured into the Petri dish and a further 200 μl of the aqueous solution were distributed over the insect diet. The Petri dish was closed and then stored at 25° C. in a climatized chamber. After 6 days of storage, the mortality among the larvae was determined. The following examples were active: 1036, 175, 184, 1051, 1054, 1055, 234, 1057, 1059, 1060, 1063, 243, 245, 251, 257, 259, 266, 1065, 1067, 290, 291.

Aedes aegypti = assay: Example AG: microtiter plate, yellow fever mosquito larvicidal activity; settings: 500 ppm or less, after 3 days
Heliothis virescens = assay: Example B: tobacco budworm eggs on filter paper/insect diet, mortality; settings: 500 ppm or less; 24-hour-old eggs dipped, diet treated; after 6 days
Meloidogyne incognita = assay: Example H: root gall nematode larvae immobilization (contact activity); settings: 500 ppm or less; 2nd stage larvae; 6 days permanent exposure
Description: In a glass vessel, an aqueous solution of the formulated compound to be examined was added to about 3000 freshly hatched active (mobile) larvae (2nd development stage) of the root gall nematode (Meloidogyne incognita) (final volume 20 ml). After 6 days of permanent exposure of the nematode larvae, the percentage of the individual larvae immobilized by the activity of the compound was determined in comparison to the untreated controls (contact activity). The compounds of the following examples were active: 39, 52, 159, 161, 162, 163, 164, 165, 1045, 1046, 1047, 179, 183, 187, 1048, 298, 206, 208, 227, 230, 1061, 237, 238, 245, 250, 255, 256, 260, 268, 269, 274, 275, 288, 290.

[1] = test system: Diabrotica undecimpunctata; assay: Example C: corn rootworm eggs with maize corn, mortality; settings: 500 ppm or less; 4-5-day-old eggs; after 6 days
[2] = test system: Trialeurodes vaporariorum; assay: Example AD: bush beans sprayed, white fly larvicidal action; settings: 500 ppm or less; bush beans sprayed after hatching; after 11 days
Description: For oviposition, bush beans (Phaseolus vulgaris) were populated for 48 hours with adults of the white fly (Trialeurodes vaporariorum). After the larvae had hatched, the plants were sprayed to run-off point with an aqueous solution of the formulated compound to be examined. After 11 days, the larvicidal action was determined. The following examples were active: 1036, 70, 60, 1040, 197.

Spodoptera littoralis [3] = assay: Example G: treated L2 larvae and insect diet, Egyptian cotton leafworm mortality; settings: 500 ppm or less, after 6 days
Description: A Petri dish whose bottom was covered with filter paper and which contained about 5 ml of insect diet is prepared. Five L2 larvae of the Egyptian cotton leafworm (Spodoptera littoralis) were counted into a small beaker. 200 μl of an aqueous solution of the formulated preparation to be examined were pipetted into the beaker. The treated larvae were then poured into the Petri dish, and a further 200 μl of the aqueous solution were distributed over the insect diet. The Petri dish was closed and then stored at about 25° C. in a climatized chamber. After 6 days of storage, the effect of the compound on the larvae was determined (mortality). The compounds of the following examples were active: 29, 70, 60, 159, 1005, 1040, 1042, 1044, 1045, 1046, 1047.

Nilaparvata lugens = assay: Example A: rice leaf dip, leafhopper larvae mortality; settings: 500 ppm or less; L3 larvae on dipped rice plants; after 6 days
Description: The leaves of 12 rice plants having a stem length of 8 cm were dipped for 5 seconds into an aqueous solution of the formulated compound to be examined. After the solution had run off, the rice plants treated in this manner were placed into a Petri dish and populated with about 20 larvae (L3 stage) of the rice leafhopper species Nilaparvata lugens. The Petri dish was closed and then stored in a climatized chamber (16 hours of light/day, 25° C., 40–60% relative atmospheric humidity). After 6 days of storage, the mortality among the leafhopper larvae was determined. The compounds of the following examples were active: Nos. 29, 32, 42, 43, 51, 70, 84, 1002, 1004, 1005, 1040, 180, 184, 193, 197, 203, 209, 1059, 264, 265, 1066.

Aphis fabae = assay: Example F: field bean dip, black bean aphid mortality; settings: 500 ppm or less; plants and aphids dipped; after 3 and 6 days
Description: Germinated field bean seeds (Vicia faba) with radicles were transferred into brown glass bottles filled with tap water and subsequently populated with approximately 100 black bean aphids (Aphis fabae). Plants and aphids were then dipped for 5 seconds into an aqueous solution of the formulated compound to be examined. After the solution had run off, plants and animals were stored in a climatized chamber (16 hours of light/day, 25° C., 40–60% relative atmospheric humidity). After 3 and 6 days of storage, the effect of the compound on the aphids was determined (mortality). The compounds of the following examples were active: 30, 43, 228, 262, 291.

Carpocapsa pomonella = assay: Example D: dipped apples, codling moth L1 larvae mortality; settings: 500 ppm or less, after 14 days
Description: Apples were dipped into an aqueous solution of the formulated compound to be examined. The apples were then populated with 10 L1 larvae of the codling moth (Carpocapsa pomonella). After 14 days of storage at about 25° C., the effect of the compound on the larvae was determined (mortality). The compounds of the following examples were active: Nos. 14, 15, 17, 18, 70, 1007, 1008, 1009, 1036, 1038, 197.

Spodoptera littoralis [4] = assay: Example E: cotton leaves sprayed, Egyptian cotton leafworm L2 larvae mortality; settings: 500 ppm or less, after 4 days
Description: Leaves of cotton plants were placed into a Petri dish, populated with 10 L2 larvae of the Egyptian cotton leafworm (Spodoptera littoralis) and sprayed with an aqueous solution of the formulated compound to be examined. After 4 days of storage at about 23° C., the effect of the compound on the larvae was determined (mortality). The compounds of the following examples were active: Nos. 18, 70, 1007, 1008, 1009, 1036 und 1038.

[5] = test system: Diabrotica undecimpunctata; assay: Example AC: treated soil, southern corn rootworm eggs mortality; settings: 500 ppm or less, eggs added after 0d, 21d and 42d, after 2 weeks
Description: An aqueous solution of the formulated compound to be examined was mixed with soil. After 0d, 21d and 42d, eggs of the southern corn rootworm (Diabrotica undecimpunctata) were placed together with 2 pre-swollen maize corns into a dish, covered with the treated soil and moisted with 10 ml of water. Soil and eggs were placed in a greenhouse (23° C., 60% relative atmosphere humidity). After 2 weeks of storage, the effect of the compound on the eggs and any larvae hatched therefrom was determined (mortality). The following examples were active: 70, 60, 197, 204.

CC1CCN(CC#Cc2ccc(-c3ccccc3Cl)s2)CC1 [Example 243]
active: mortality among the larvae (Spodoptera exigua)

CC1CCN(CC#Cc2ccc(C#N)c(C(F)(F)F)c2)CC1 [Example 290]
active: larvicidal activity (Aedes aegypti) | effect on the eggs and hatched larvae (mortality) (Heliothis virescens) | percentage of larvae immobilized (contact activity) (Meloidogyne incognita) | mortality among the larvae (Spodoptera exigua) | effect on the eggs and hatched larvae (mortality) [1]

CC1CCN(CC#Cc2ccc(-c3ccc(Cl)cc3)s2)CC1 [Example 245]
active: larvicidal activity (Aedes aegypti) | effect on the eggs and hatched larvae (mortality) (Heliothis virescens) | percentage of larvae immobilized (contact activity) (Meloidogyne incognita) | mortality among the larvae (Spodoptera exigua)

CC1CCN(CC#Cc2ccc(C(F)(F)F)c(Cl)c2)CC1.CCCCCCCCC(=O)O [Example 1040]
active: larvicidal action [2] | effect on the eggs and hatched larvae (mortality) (Heliothis virescens) | effect on the larvae (mortality) (Spodoptera littoralis [3]) | effect on the eggs and hatched larvae (mortality) [1] | mortality among the leafhopper larvae (Nilaparvata lugens)

C[C@@H]1C[C@H](C)CN(CC#Cc2cc(C(F)(F)F)cc(C(F)(F)F)c2)C1 [Example 43]
active: effect on the aphids (mortality) (Aphis fabae) | effect on the eggs and hatched larvae (mortality) [1] | mortality among the leafhopper larvae (Nilaparvata lugens)

CC1CCN(CC#Cc2cc([N+](=O)[O-])cc(C(F)(F)F)c2)CC1.Cl [Example 1038]
active: effect on the larvae (mortality) (Carpocapsa pomonella) | effect on the eggs and hatched larvae (mortality) (Heliothis virescens) | effect on the larvae (mortality) (Spodoptera littoralis [4]) | effect on the eggs and hatched larvae (mortality) [1]

FC(F)(F)c1cc(C#CCN2CCC(C(F)(F)F)CC2)nc(C(F)(F)F)c1 [Example 204]
active: effect on the eggs and hatched larvae (mortality) (Heliothis virescens) | effect on the eggs and hatched larvae (mortality) [5] | effect on the eggs and hatched larvae (mortality) [1]

Cc1cc(C)cc(-c2ccc(C#CCN3CCC(C)CC3)cc2)c1 [Example 175]
active: effect on the eggs and hatched larvae (mortality) (Heliothis virescens) | mortality among the larvae (Spodoptera exigua)

CC1CCN(CC#Cc2cc(C(F)(F)F)ccc2Cl)CC1 [Example 30]
active: effect on the eggs and hatched larvae (mortality) (Heliothis virescens) | effect on the aphids (mortality) (Aphis fabae)

CC1CCN(CC#Cc2cc(C(F)(F)F)cc(Cl)n2)CC1 [Example 234]
active: larvicidal activity (Aedes aegypti) | effect on the eggs and hatched larvae (mortality) (Heliothis virescens) | mortality among the larvae (Spodoptera exigua) | effect on the eggs and hatched larvae (mortality) [1]

CC1CCN(CC#Cc2ccc(C(F)(F)F)c(Cl)c2)CC1.O=C(O)/C=C/C(=O)O [Example 1008]
active: effect on the larvae (mortality) (Carpocapsa pomonella) | effect on the larvae (mortality) (Spodoptera littoralis [4])

CC1CCN(CC#Cc2cc(C(F)(F)F)cc(C(F)(F)F)n2)CC1.CCS(=O)(=O)O [Example 1060]
active: larvicidal activity (Aedes aegypti) | effect on the eggs and hatched larvae (mortality) (Heliothis virescens) | mortality among the larvae (Spodoptera exigua) | effect on the eggs and hatched larvae (mortality) [1]

CC1CCN(CC#Cc2ccc(-c3ccc(F)cc3)c(F)c2)CC1 [Example 228]
active: effect on the aphids (mortality) (Aphis fabae) | effect on the eggs and hatched larvae (mortality) [1]

CCC1CCCN(CC#Cc2ccc(Cl)c(C(F)(F)F)c2)C1 (stereo not drawn) [Example 18]
active: effect on the larvae (mortality) (Carpocapsa pomonella) | effect on the eggs and hatched larvae (mortality) (Heliothis virescens) | effect on the larvae (mortality) (Spodoptera littoralis [4]) | effect on the eggs and hatched larvae (mortality) [1]
